# Test results: article PMC4728661, “Cancer Prevention and Health Benefices of Traditionally Consumed Borago officinalis Plants” (Nutrients, 2016)
# Marks after values point to notes of the source that are not given here.
# Experiments:
# D. melanogaster [1] = assay: Toxicity: survival of Drosophila larvae to emerged adults, simple and combined (H2O2) treatments; assay type: in vivo, Drosophila melanogaster
# Procedure: Optimal fertile flies were anesthetized under CO2 narcotisation for cross selection and then placed in new vials for fertilization. After that, hybrid eggs from crossing were collected over an 8 h period and emerged larvae (72 ± 4 h later) were cleaned up for a few seconds in sterile distilled water to remove feeding medium rests. […] Bioactive compound concentrations were chosen on the basis of their known content in B. officinalis species. […] Larvae were fed on these media until pupation (about 48 h). After emergence, resulting adult flies were sacrificed under CO2 narcotisation and stored in a 70% ethanol solution in sterile water. […] The determination of Toxicity (T) of treatments in D. melanogaster was performed following this formula [39]: T = (N° of emerging individuals in treatment/N° of emerging individuals in the negative control) × 100(1) Differences in D. melanogaster survival between treatments at each concentration with respect to negative control were analyzed with a Chi-square test. This procedure was also performed for the analysis of each simple treatment with their correspondent combined treatment.
# D. melanogaster [2] = assay: Genotoxicity: Somatic Mutation and Recombination Test (SMART), wing spot test, simple treatments; assay type: in vivo, Drosophila melanogaster; conditions: for Genotoxicity in the Drosophila wing spot test (in words): simple treatments, all concentrations; for Diagnosis, Large Single Spots >2 Cells m = 5 / Diagnosis, Small Single Spots 1–2 Cells m = 2 / Diagnosis, Total Spots m = 2 / Diagnosis, Twin Spots m = 5 / Mutation rate, Large Single Spots >2 Cells m = 5 / Mutation rate, Small Single Spots 1–2 Cells m = 2 / Mutation rate, Total Spots m = 2 / Mutation rate, Twin Spots m = 5: simple; as to Diagnosis, Large Single Spots >2 Cells m = 5: key: + (positive); − (negative); as to Diagnosis, Small Single Spots 1–2 Cells m = 2: key: + (positive); − (negative); as to Diagnosis, Total Spots m = 2: key: + (positive); − (negative); as to Diagnosis, Twin Spots m = 5: key: + (positive); − (negative)
# Procedure: The D. melanogaster system was selected for the determination of the safety of B. officinalis consumption as a well-recognized method to analyze vegetable complex mixtures using SMART [31, 32]. This test was used in order to evaluate the genotoxic and antigenotoxic activity of B. officinalis leaves and petioles as well as their selected bioactive compounds [33]. This activity was measured by direct visualization of the occurrence of recessive mutations in the wing hairs of two different D. melanogaster strains. Flies from experiments carried these visible wing genetic markers: the flare (flr) strain flr^3/ln (3LR) TM3, Bd^s and the multiple wing-hair (mwh) strain mwh/mwh. The marker flare (flr^3, 3_38.3) produces individual malformed hairs and the marker multiple wing hairs (mwh, 3_0.3) produces multiple hairs per cell. Larvae used in treatments come from two types of crosses: the standard cross with flr^3/TM3, Bd^S females mated to mwh/mwh males and the reciprocal cross.
# Optimal fertile flies were anesthetized under CO2 narcotisation for cross selection and then placed in new vials for fertilization. After that, hybrid eggs from crossing were collected over an 8 h period and emerged larvae (72 ± 4 h later) were cleaned up for a few seconds in sterile distilled water to remove feeding medium rests. For genotoxicity analysis (simple treatments), groups of 100 larvae were transferred into vials containing 0.85 g of Drosophila Instant Medium (Formula 4–24, Carolina Biological Supply, Burlington, NC, USA) wetted with 4 mL of a mixture of distilled water and increasing concentrations of samples: B. officinalis BF and WF (1.25, 2.5, and 5 mg·mL^−1), RO (0.35, 0.7, 1.39 and 2.78 mM), SY (0.16, 0.32, 0.63 and 1.26 mM), SI (0.15, 0.29, 0.58 and 1.16 mM) and the mixture of these three bioactive compounds at each concentration assayed individually. Bioactive compound concentrations were chosen on the basis of their known content in B. officinalis species. […] Larvae were fed on these media until pupation (about 48 h). After emergence, resulting adult flies were sacrificed under CO2 narcotisation and stored in a 70% ethanol solution in sterile water. Emerged adults were counted for toxicity evaluation and transheterozygous wings (mwh flr^+/mwh^+ flr^3) were mounted on microscope slides and wing hair mutations (spots) scored, using a photonic microscope (Nikon) at 400× magnification for genotoxicity and antigenotoxicity evaluation.
# For the evaluation of genotoxic effects, the frequencies of spots per fly of each treated series were compared to the concurrent negative control for each class of mutational clone as well as between simple and combined treatments for the same concentration comparisons. […] A multiple-decision procedure was used to categorize results as positive, inconclusive or negative. Inconclusive and positive results were evaluated by the non-parametric U test of Mann, Whitney and Wilcoxon. The inhibition percentage (IP) of genotoxicity was calculated from the total frequencies of spots per wing, following this formula [42]: IP = (genotoxin alone − sample + genotoxin) × 100/(genotoxin alone)(2)
compound,measurement,setting,value
"COc1cc(/C=C/C(=O)O)cc(OC)c1O [SI, sinapic acid]",Survival,"D. melanogaster [1]; combined with 0.12 M H2O2, 0.15 mM SI","64 *^,‡ %"
same,Survival,"D. melanogaster [1]; combined with 0.12 M H2O2, 0.29 mM SI",58.89 * %
same,Survival,"D. melanogaster [1]; combined with 0.12 M H2O2, 0.58 mM SI","39.78 *^,‡ %"
same,Survival,"D. melanogaster [1]; combined with 0.12 M H2O2, 1.16 mM SI","43.56 *^,‡ %"
same,Survival,"D. melanogaster [1]; simple treatment, 0.15 mM SI",78.22 * %
same,Survival,"D. melanogaster [1]; simple treatment, 0.29 mM SI",60.22 * %
same,Survival,"D. melanogaster [1]; simple treatment, 0.58 mM SI",69.33 * %
same,Survival,"D. melanogaster [1]; simple treatment, 1.16 mM SI",55.11 * %
same,Genotoxicity in the Drosophila wing spot test (in words),D. melanogaster [2],not mutagenic
same,"Diagnosis, Large Single Spots >2 Cells m = 5",D. melanogaster [2]; 0.15 mM SI,−
same,"Diagnosis, Small Single Spots 1–2 Cells m = 2",D. melanogaster [2]; 0.15 mM SI,−
same,"Diagnosis, Total Spots m = 2",D. melanogaster [2]; 0.15 mM SI,−
same,"Diagnosis, Twin Spots m = 5",D. melanogaster [2]; 0.15 mM SI,−
same,"Mutation rate, Large Single Spots >2 Cells m = 5",D. melanogaster [2]; 0.15 mM SI,0.04 (1) spots/wing
same,"Mutation rate, Small Single Spots 1–2 Cells m = 2",D. melanogaster [2]; 0.15 mM SI,0.38 (9) spots/wing
same,"Mutation rate, Total Spots m = 2",D. melanogaster [2]; 0.15 mM SI,0.46 (11) spots/wing
same,"Mutation rate, Twin Spots m = 5",D. melanogaster [2]; 0.15 mM SI,0.04 (1) spots/wing
same,"Diagnosis, Large Single Spots >2 Cells m = 5",D. melanogaster [2]; 0.29 mM SI,−
same,"Diagnosis, Small Single Spots 1–2 Cells m = 2",D. melanogaster [2]; 0.29 mM SI,−
same,"Diagnosis, Total Spots m = 2",D. melanogaster [2]; 0.29 mM SI,−
same,"Mutation rate, Large Single Spots >2 Cells m = 5",D. melanogaster [2]; 0.29 mM SI,0.10 (3) spots/wing
same,"Mutation rate, Small Single Spots 1–2 Cells m = 2",D. melanogaster [2]; 0.29 mM SI,0.39 (12) spots/wing
same,"Mutation rate, Total Spots m = 2",D. melanogaster [2]; 0.29 mM SI,0.48 (15) spots/wing
same,"Mutation rate, Twin Spots m = 5",D. melanogaster [2]; 0.29 mM SI,0 spots/wing
same,"Diagnosis, Large Single Spots >2 Cells m = 5",D. melanogaster [2]; 0.58 mM SI,−
same,"Diagnosis, Small Single Spots 1–2 Cells m = 2",D. melanogaster [2]; 0.58 mM SI,−
same,"Diagnosis, Total Spots m = 2",D. melanogaster [2]; 0.58 mM SI,−
same,"Mutation rate, Large Single Spots >2 Cells m = 5",D. melanogaster [2]; 0.58 mM SI,0.07 (2) spots/wing
same,"Mutation rate, Small Single Spots 1–2 Cells m = 2",D. melanogaster [2]; 0.58 mM SI,0.33 (10) spots/wing
same,"Mutation rate, Total Spots m = 2",D. melanogaster [2]; 0.58 mM SI,0.40 (12) spots/wing
same,"Mutation rate, Twin Spots m = 5",D. melanogaster [2]; 0.58 mM SI,0 spots/wing
same,"Diagnosis, Large Single Spots >2 Cells m = 5",D. melanogaster [2]; 1.16 mM SI,−
same,"Diagnosis, Small Single Spots 1–2 Cells m = 2",D. melanogaster [2]; 1.16 mM SI,−
same,"Diagnosis, Total Spots m = 2",D. melanogaster [2]; 1.16 mM SI,−
same,"Diagnosis, Twin Spots m = 5",D. melanogaster [2]; 1.16 mM SI,−
same,"Mutation rate, Large Single Spots >2 Cells m = 5",D. melanogaster [2]; 1.16 mM SI,0.03 (1) spots/wing
same,"Mutation rate, Small Single Spots 1–2 Cells m = 2",D. melanogaster [2]; 1.16 mM SI,0.23 (9) spots/wing
same,"Mutation rate, Total Spots m = 2",D. melanogaster [2]; 1.16 mM SI,0.28 (11) spots/wing
same,"Mutation rate, Twin Spots m = 5",D. melanogaster [2]; 1.16 mM SI,0.03 (1) spots/wing
"COc1cc(C(=O)O)cc(OC)c1O [SY, syringic acid]",Survival,"D. melanogaster [1]; combined with 0.12 M H2O2, 0.16 mM SY","31.11 *^,‡ %"
same,Survival,"D. melanogaster [1]; combined with 0.12 M H2O2, 0.32 mM SY","29.33 *^,‡ %"
same,Survival,"D. melanogaster [1]; combined with 0.12 M H2O2, 0.63 mM SY","20.44 *^,‡ %"
same,Survival,"D. melanogaster [1]; combined with 0.12 M H2O2, 1.26 mM SY","36.89 *^,‡ %"
same,Survival,"D. melanogaster [1]; simple treatment, 0.16 mM SY",39.78 * %
same,Survival,"D. melanogaster [1]; simple treatment, 0.32 mM SY",42.67 * %
same,Survival,"D. melanogaster [1]; simple treatment, 0.63 mM SY",31.11 * %
same,Survival,"D. melanogaster [1]; simple treatment, 1.26 mM SY",58.22 * %
same,Genotoxicity in the Drosophila wing spot test (in words),D. melanogaster [2],not mutagenic
same,"Diagnosis, Large Single Spots >2 Cells m = 5",D. melanogaster [2]; 0.16 mM SY,−
same,"Diagnosis, Small Single Spots 1–2 Cells m = 2",D. melanogaster [2]; 0.16 mM SY,−
same,"Diagnosis, Total Spots m = 2",D. melanogaster [2]; 0.16 mM SY,−
same,"Diagnosis, Twin Spots m = 5",D. melanogaster [2]; 0.16 mM SY,−
same,"Mutation rate, Large Single Spots >2 Cells m = 5",D. melanogaster [2]; 0.16 mM SY,0.05 (2) spots/wing
same,"Mutation rate, Small Single Spots 1–2 Cells m = 2",D. melanogaster [2]; 0.16 mM SY,0.30 (12) spots/wing
same,"Mutation rate, Total Spots m = 2",D. melanogaster [2]; 0.16 mM SY,0.38 (15) spots/wing
same,"Mutation rate, Twin Spots m = 5",D. melanogaster [2]; 0.16 mM SY,0.03 (1) spots/wing
same,"Diagnosis, Large Single Spots >2 Cells m = 5",D. melanogaster [2]; 0.32 mM SY,−
same,"Diagnosis, Small Single Spots 1–2 Cells m = 2",D. melanogaster [2]; 0.32 mM SY,−
same,"Diagnosis, Total Spots m = 2",D. melanogaster [2]; 0.32 mM SY,−
same,"Mutation rate, Large Single Spots >2 Cells m = 5",D. melanogaster [2]; 0.32 mM SY,0.07 (2) spots/wing
same,"Mutation rate, Small Single Spots 1–2 Cells m = 2",D. melanogaster [2]; 0.32 mM SY,0.20 (6) spots/wing
same,"Mutation rate, Total Spots m = 2",D. melanogaster [2]; 0.32 mM SY,0.27 (8) spots/wing
same,"Mutation rate, Twin Spots m = 5",D. melanogaster [2]; 0.32 mM SY,0 spots/wing
same,"Diagnosis, Large Single Spots >2 Cells m = 5",D. melanogaster [2]; 0.63 mM SY,−
same,"Diagnosis, Small Single Spots 1–2 Cells m = 2",D. melanogaster [2]; 0.63 mM SY,−
same,"Diagnosis, Total Spots m = 2",D. melanogaster [2]; 0.63 mM SY,−
same,"Mutation rate, Large Single Spots >2 Cells m = 5",D. melanogaster [2]; 0.63 mM SY,0.02 (1) spots/wing
same,"Mutation rate, Small Single Spots 1–2 Cells m = 2",D. melanogaster [2]; 0.63 mM SY,0.19 (9) spots/wing
same,"Mutation rate, Total Spots m = 2",D. melanogaster [2]; 0.63 mM SY,0.21 (10) spots/wing
same,"Mutation rate, Twin Spots m = 5",D. melanogaster [2]; 0.63 mM SY,0 spots/wing
same,"Diagnosis, Large Single Spots >2 Cells m = 5",D. melanogaster [2]; 1.26 mM SY,−
same,"Diagnosis, Small Single Spots 1–2 Cells m = 2",D. melanogaster [2]; 1.26 mM SY,−
same,"Diagnosis, Total Spots m = 2",D. melanogaster [2]; 1.26 mM SY,−
same,"Mutation rate, Large Single Spots >2 Cells m = 5",D. melanogaster [2]; 1.26 mM SY,0.06 (2) spots/wing
same,"Mutation rate, Small Single Spots 1–2 Cells m = 2",D. melanogaster [2]; 1.26 mM SY,0.22 (7) spots/wing
same,"Mutation rate, Twin Spots m = 5",D. melanogaster [2]; 1.26 mM SY,0 spots/wing
